# Experimental data taken from PMC12567141, “Design, Synthesis and Biological Evaluation of Pyrazolopyrimidine Derivatives as Aryl Hydrocarbon Receptor Antagonists for Colorectal Cancer Immunotherapy” (Pharmaceutics, 2025).
# Columns and labels:
# MC38 and CT26 cells = assay: Apoptosis analysis (Annexin V / propidium iodide); type: cell-based; details: 24 h treatment
# Protocol: Cells were washed with PBS containing 1% horse serum and stained with the FITC-Annexin V Apoptosis Detection Kit I (BD Biosciences) at room temperature for 30 min in the dark. DNA content, cell-cycle profiles, and forward scatter profiles were determined using the Becton Dickinson LSRFortessa^TM and analyzed with FlowJo software v11.
# [1] = tested on: p53/p21/caspase-3 signaling pathway in MC38 and CT26 cells; assay: Western blot of apoptosis-regulating proteins; type: cell-based; details: 24 h
# Protocol: For the extraction of total protein, cells were treated with 7k for 24 h in a CO2 incubator at 37 °C and washed twice with phosphate-buffered saline (PBS). Cell pellets were lysed using radioimmunoprecipitation assay (RIPA) buffer (Thermo Fisher Scientific) containing a protease and phosphatase inhibitor cocktail kit (Thermo Fisher Scientific). The lysed cells were briefly vortexed at intervals and subsequently centrifuged at 13,000× g at 4 °C. The protein sample was quantified with the bicinchoninic acid (BCA) protein assay kit (Thermo Fisher Scientific).
# Equal amounts of proteins were loaded onto 10% sodium dodecyl sulfate polyacrylamide gel electrophoresis and transferred onto PVDF membranes (Millipore, Billerica, MA, USA). The membrane was blocked with 5% skim milk in Tris-buffered saline (TBS) containing Tween-20 (TBS-T) for an hour and probed with the respective primary antibodies in 5% BSA overnight at 4 °C. Following incubation, the membrane was probed with horseradish peroxidase (HRP)-conjugated secondary antibodies for an hour at room temperature. The membrane was washed three times with TBS-T and the signal was visualized using an enhanced chemiluminescence (ECL) detection reagent (GE Healthcare Life Sciences, Pittsburgh, PA, USA).
# The primary antibodies used were as follows: Total p53 (Santa Cruz Biotechnology, Dallas, TX, USA, working dilution 1:500), PARP (CST, Danvers, MA, USA; working dilution 1:1000), cleaved caspase3 (CST, MA, USA; working dilution 1:1000), p21 (CST, MA, USA; working dilution 1:1000), Bcl-2 (CST, MA, USA; working dilution 1:1000), AhR (Santa Cruz; working dilution 1:500), LaminB1 (CST, MA, USA; working dilution 1:2000), GAPDH (Abcam, Cambridge, UK; working dilution 1:5000) and β-actin (CST, MA, USA; dilution 1:5000). HRP-conjugated secondary antibodies used were as follows: anti-mouse (CST, MA, USA) and anti-rabbit (CST, MA, USA).
# HCT-116 cells = assay: Clonogenic assay; type: cell-based; details: colorectal cancer cells vs vehicle-treated cells
# Protocol: Cells were plated into 6-well plates and left for 48 h. After treatment with 5, 10 μM 7k for 24 h, the drug-containing medium was discarded, and cells were washed twice with PBS and left in complete culture medium for the time corresponding to six doublings. Finally, cells were fixed in 4% Paraformaldehyde (PFA) solution and stained with 0.05% crystal violet.
# CT26 tumor = assay: In vivo therapy, CT26 syngeneic model; parameters: species or system mice
# Protocol: In vivo experiments were conducted using 6-week-old male immunocompetent BALB/c and C57BL/6 with 18–20 g body weight (Orient Bio Inc., Seungnam, Republic of Korea). All animal experimental procedures were maintained and used in accordance with the Guidelines for the Care and Use of Laboratory Animals of the Institute of Laboratory Animal Center, Daegu-Gyeongbuk Medical Innovation Foundation (K-MEDI hub). The animal studies were conducted after approval by the institutional reviewer board on the Ethics of Animal Experiments of the Daegu-Gyeongbuk Medical Innovation Foundation (approval number: KMEDI-24041103-01).
# Study 1: Antitumor activity of 7k alone in mice with either CT26 syngeneic model or MC38 syngeneic model. Mice were subcutaneously challenged with 5 × 10^5 either MC38 or CT26 cells. When tumor formation was detected via inspection and palpation, 7k treatment was initiated once a day for 14 days by oral gavage.
# Study 2: Antitumor activity of combination with anti-PD1 and 7k in CT26 tumor bearing mice. Mice were subcutaneously challenged with 5 × 10^5 CT26 cells. Tumor bearing mice were divided into four groups as following; Group 1: vehicle, Group 2: 10 mg/kg anti-PD1, Group 3: 10 mg/kg 7k, and Group 4: 10 mg/kg anti-PD1 + 10 mg/kg 7k. 7k was administered by oral gavage once daily. Anti-PD1 antibody (clone RPM1-14, Bio X cell, Lebanon, NH, USA) was injected intraperitoneally every 3 days for 4 doses.
# The 7k was dissolved in solution including 5% DMSO, 55% DW, and 40% PEG. Tumor size was measured with a caliper at the indicated time points, and tumor volume (mm^3) was calculated using the following formula, tumor volume (mm^3) = d2 × D/2, where d and D are the shortest and longest diameters in mm, respectively.
# AhR = AhR (Danio rerio, UniProt Q9YGV3); assay: IC50 determination, Cyp1a dual luciferase reporter assay in transfected COS-7 cells; type: cell-based; details: AhR2/ARNT-1c/Cyp1a-luciferase, TCDD 10 nM
# Chain of AhR (Q9YGV3 1-1027): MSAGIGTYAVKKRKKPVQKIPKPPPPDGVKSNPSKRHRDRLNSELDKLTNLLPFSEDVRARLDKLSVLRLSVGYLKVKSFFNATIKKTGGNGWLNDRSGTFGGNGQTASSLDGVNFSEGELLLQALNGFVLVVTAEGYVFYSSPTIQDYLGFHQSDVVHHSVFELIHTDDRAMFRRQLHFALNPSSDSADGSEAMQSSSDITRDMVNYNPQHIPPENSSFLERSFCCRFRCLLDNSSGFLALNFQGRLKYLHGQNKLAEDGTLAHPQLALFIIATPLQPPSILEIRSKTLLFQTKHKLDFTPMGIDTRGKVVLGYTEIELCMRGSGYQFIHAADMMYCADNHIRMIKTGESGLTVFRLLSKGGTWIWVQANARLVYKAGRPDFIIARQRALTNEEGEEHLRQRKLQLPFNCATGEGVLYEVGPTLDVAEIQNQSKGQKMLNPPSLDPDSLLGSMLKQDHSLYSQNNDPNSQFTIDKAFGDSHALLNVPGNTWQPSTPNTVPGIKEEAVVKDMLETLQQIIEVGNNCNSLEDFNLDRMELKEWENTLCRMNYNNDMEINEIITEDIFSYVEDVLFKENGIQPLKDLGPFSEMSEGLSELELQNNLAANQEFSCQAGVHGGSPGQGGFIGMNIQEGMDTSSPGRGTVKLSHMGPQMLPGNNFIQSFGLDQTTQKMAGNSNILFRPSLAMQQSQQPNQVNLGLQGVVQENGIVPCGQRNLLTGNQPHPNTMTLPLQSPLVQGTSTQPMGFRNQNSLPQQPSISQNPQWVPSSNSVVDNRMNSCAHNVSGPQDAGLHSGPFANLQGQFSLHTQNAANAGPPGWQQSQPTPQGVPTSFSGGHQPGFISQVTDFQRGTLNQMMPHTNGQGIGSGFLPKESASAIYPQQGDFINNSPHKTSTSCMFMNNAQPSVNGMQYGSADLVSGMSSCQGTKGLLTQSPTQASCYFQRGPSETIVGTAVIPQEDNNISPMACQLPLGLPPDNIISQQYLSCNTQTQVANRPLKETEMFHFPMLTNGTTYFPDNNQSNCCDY
# Chain of AhR (Q64FF9 1-503 partner): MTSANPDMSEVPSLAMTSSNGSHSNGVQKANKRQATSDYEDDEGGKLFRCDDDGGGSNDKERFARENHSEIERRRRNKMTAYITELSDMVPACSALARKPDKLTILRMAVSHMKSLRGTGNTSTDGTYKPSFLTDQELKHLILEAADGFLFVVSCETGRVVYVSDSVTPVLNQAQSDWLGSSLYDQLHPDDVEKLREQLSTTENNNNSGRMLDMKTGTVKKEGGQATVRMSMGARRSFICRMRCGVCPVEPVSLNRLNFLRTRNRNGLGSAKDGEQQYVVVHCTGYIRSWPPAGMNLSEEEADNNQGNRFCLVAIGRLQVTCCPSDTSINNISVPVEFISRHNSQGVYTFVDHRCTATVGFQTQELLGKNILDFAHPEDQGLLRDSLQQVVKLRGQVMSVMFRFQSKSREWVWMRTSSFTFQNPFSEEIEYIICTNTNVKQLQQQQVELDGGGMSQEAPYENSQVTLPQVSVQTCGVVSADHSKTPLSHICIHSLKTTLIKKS
# Protocol: All experiments were conducted as described previously unless stated otherwise. COS-7 cells were seeded onto 24-well plate until approximately 65% confluency. The cells were transfected with ARNT-1c expression plasmid (50 ng), AhR2 expression plasmid (5 ng), Cyp1a-firefly luciferase reporter plasmid (20 ng) and pRL-TK Renilla luciferase plasmid (2 ng) using Lipofectamine 3000 (Thermo Fisher Scientific) according to the manufacturer’s protocol. The pEGFP-C1 plasmid (Clontech, Tempe, AZ, USA) was used to assess the transfection efficiency. At 5 h post transfection, serially diluted test compounds at indicated concentration were added to the cells. Simultaneously, TCDD (10 nM) or indicated compounds with the highest concentration were added in the control wells. At 1 h post compound treatment, TCDD (10 nM) was added to all wells except the control wells. At 18 h post TCDD treatment, the medium was removed, and the cells washed with Dulbecco’s phosphate buffered saline (DPBS) and harvested using 1x Passive Lysis Buffer (Promega, Madison, WI, USA). The dual luciferase assay was carried out using a Dual-Luciferase Reporter Assay System (Promega, Madison, WI, USA) and an Orion L Microplate Luminometer (Titertek Berthold, Pforzheim, BW, Germany) as per manufacturer’s protocol. The relative light unit (RLU) values were normalized and expressed as toxic induced ratio (TIR). IC50 was determined using Prism 9.0 (GraphPad Software).
smiles,measurement,setting,value
"CC(C)n1cc2nc(-c3cc(F)cc(F)c3)nc(NCCc3c[nH]c4ccccc34)c2n1 [Compound 7k, N-(2-(1H-indol-3-yl)ethyl)-5-(3,5-difluorophenyl)-2-isopropyl-2H-pyrazolo [4,3-d]pyrimidin-7-amine]",apoptosis,MC38 and CT26 cells,increase in apoptosis
same,Bcl-2 expression,[1],downregulation of Bcl-2
same,cleaved poly (ADP-ribose) polymerase and cleaved caspase 3,[1],upregulation of cleaved poly (ADP-ribose) polymerase and cleaved caspase 3
same,p21 expression,[1],increase in p21
same,p53 expression,[1],upregulation of p53
same,colony formation ability,HCT-116 cells,significant decrease in the colony formation ability
same,tumor growth inhibition (TGI),"CT26 tumor; CT26 model, combination study, 7k 10 mg/kg oral daily 14 days, anti-PD1 10 mg/kg i.p. every 3 days x4",49%
same,tumor weight,"CT26 tumor; CT26 tumor bearing mice, vs vehicle-treated mice (Figure S4)",significantly lower
same,tumor growth inhibition (TGI),"CT26 tumor; CT26 tumor-bearing mice, single agent, 10 mg/kg oral once a day for 14 days",33%
same,IC50,AhR,13.7 nM
